Results taken from US11291674B2 (CALITHERA BIOSCIENCES, INC., priority 2016, dated 2022).

Assays:
CT26 cell line = assay: Cytotoxicity assay (CellTiterGlo), CT26; format: cell-based, murine; settings: 1 mM arginase inhibitor, 72 h
Method: (§1) Cytotoxicity assays. […] Cytotoxicity was assayed by the addition of CellTiterGlo reagent according to the manufacturer's instructions (Promega, Madison, Wis.) followed by […] quantification on a Molecular Devices plate reader (Sunnyvale, Calif.).

[1] = tested on: G-MDSC-mediated suppression of T cell proliferation; assay: T cell proliferation in media conditioned by G-MDSC of a lung cancer patient; format: cell-based, human
Method: T cell/myeloid cell co-culture assays. […] Granulocytes were incubated for 48 h at 37° C., during which time they spontaneously activate as determined by surface expression of CD66b and scatter properties. T cells isolated from the same donor using a pan-T cell isolation kit (Stemcell Technologies) were loaded with CFSE and plated with immobilized anti-CD3 and soluble anti-CD28 in the presence of the aged granulocytes. The cells were co-cultured at several ratios of granulocytes to T cells as indicated or at a fixed ratio of 4 T cells to 1 granulocyte. Co-cultures were incubated for 3-4 days, at which time media were analyzed for L-arginine and L-ornithine by mass spectrometry and T cell proliferation was determined by flow cytometry. Granulocytic MDSC (G-MDSC) or granulocytes from cancer patients were isolated from whole blood purchased from Conversant Biologics. G-MDSCs were purified from the PBMC layer of a Ficoll gradient by positive selection for CD66b^+ cells. Granulocytes were purified from the RBC layer of a Ficoll gradient using Hetasep (Stemcell Technologies). […] Cytokines were quantified in the media from T cell co-culture assays using the Cytometric Bead Array kit according to the manufacturer's instructions (BD Biosciences).

4T1 cell line = assay: Cytotoxicity assay (CellTiterGlo), 4T1; format: cell-based, murine; settings: 1 mM arginase inhibitor, 72 h
Method: as §1

LLC cell line = assay: Cytotoxicity assay (CellTiterGlo), LLC; format: cell-based, murine; settings: 1 mM arginase inhibitor, 72 h
Method: as §1

LLC tumors = assay: LLC syngeneic tumor model; format: in vivo, mouse
Excerpt: Murine tumor studies. Female wild-type C57BL/6 and Balb/c mice (5-6 weeks old) were purchased from Charles River Laboratories (Hollister, Calif.). Severe combined immune deficient (SCID, B6.CB17-PrkdcSCID/SzJ) and Pmel-1 TCR transgenic (B6.Cg-Thyla/Cy Tg(TcraTcrb)8Rest/J) mice (5-6 weeks old) were purchased from The Jackson Laboratory (Bar Harbor, Me.). All mice were housed and treated in accordance with Institutional Animal Care and Use Committee guidelines. For the 4T1 tumor model, 1×10^5 cells were injected orthotopically into the mammary fat pad; for all other tumor models, 1×10^6 cells were injected subcutaneously (s.c.) in the right flank. […] Control groups received vehicle (water) twice daily by gavage. Tumor volume measured by digital caliper (length×width×width/2) and body weight were recorded three times weekly. Animals were euthanized when tumors necrotized or volumes reached 2000 mm^3. Anti-PD-L1 antibody (5 mg/kg, clone 10F.9G2, BioXCell, West Lebanon, N.H.) was injected intraperitoneally (i.p.) on days 5, 7, 9, 11, 13, and 15 for the CT26 model. Gemcitabine (Selleckchem, Houston, Tex.) was dosed 50 mg/kg i.p. on days 10 and 16 for the CT26 model or 60 mg/kg i.p. on days 6 and 10 for the LLC model. For CD8^+ cell depletion, mice were injected i.p. with anti-CD8 antibody (25 mg/kg, clone 2.43, BioXCell) on days −1, 0, +5, and +10. For NK cell depletion, mice were injected i.p. with anti-NK1.1 antibody (25 mg/kg, clone PK136, BioXCell) in the LLC and B16 models or with anti-Asialo GM1 sera (20 μL, Wako Chemicals, Richmond, Va.) in the CT26 model, per the same schedule as anti-CD8.
Tumor dissociation and flow cytometry. […] Excised tumors were placed in RPMI-1640 containing 5% FBS on ice, minced with a razor blade, and dissociated in RPMI-1640 supplemented with mouse tumor dissociation enzymes (Miltenyi Biotec, Bergisch Gladbach, Germany) on a GentleMACS Octo Dissociator With Heat (Miltenyi Biotec) according to the manufacturer's instructions. Dissociated tumors were strained through 70 μm nylon mesh, washed with cold PBS containing 2% FBS, blocked with anti-CD16/CD32 (Fc block antibody, eBioscience), and stained for cell surface antigens. For B16 and 4T1 tumors, washed dissociated tumor cells were incubated with Dead Cell Removal MicroBeads (Miltenyi Biotec) and applied to a magnetic column prior to staining. For intracellular staining, cells were fixed and permeabilized using buffers purchased from R&D Systems or eBioscience for cytoplasmic or nuclear antigens, respectively. All tumor flow experiments were acquired on an Attune N×T flow cytometer and analyzed with FlowJo software version 10 (Ashland, Oreg.), using fluorescence-minus-one controls for gating and single-stained OneComp eBeads (eBioscience) to set compensation matrices.
Gene expression analysis. […] RNA was extracted for gene expression analysis and transcripts were quantified by NanoString Technologies (Seattle, Wash.).
Cytokine analysis. […] Tumors were homogenized in 50 mM Tris-HCl buffer containing 2 mM EDTA, pH 7.4 and protease inhibitors. The homogenate was centrifuged and the supernatant was collected and re-frozen. Cytokines in the supernatant were quantified by Myriad Rules Based Medicine (Austin, Tex.).

[2] = 100 mg/kg BID, study day 14, flow cytometry

C[C@H](N)C(=O)N1C[C@H](CCCB(O)O)[C@](N)(C(=O)O)C1 [arginase inhibitor]
Growth inhibition of CT26 cell line (CT26 cell line): No growth inhibition | Arginine depletion of the media ([1]; G-MDSC of a lung cancer patient): arginine depletion was blocked | T cell proliferation restored, of control levels ([1]; media conditioned by G-MDSC of a lung cancer patient): 99% | Growth inhibition of 4T1 cell line (4T1 cell line): No growth inhibition | Growth inhibition of LLC cell line (LLC cell line): No growth inhibition | Tumor growth, single agent (LLC tumors; 100 mg/kg BID PO): significantly inhibited the growth | Transcripts of interferon-responsive genes in tumors vs vehicle (LLC tumors; 100 mg/kg BID, Nanostring): increases | CD8+ T cells in the tumor vs vehicle (LLC tumors; [2]): increase | CD68+ macrophages in the tumor vs vehicle (LLC tumors; [2]): decrease | Effect of depletion of CD8+ cells on efficacy (LLC tumors; 100 mg/kg twice daily, anti-CD8): smaller effect | Efficacy after depletion of NK cells (LLC tumors; 100 mg/kg twice daily, anti-NK1.1): loss of efficacy | Inflammatory cytokines in tumors vs vehicle (LLC tumors; 200 mg/kg BID, Luminex): increases | Tumor growth inhibition, combination with gemcitabine (LLC tumors; gemcitabine 60 mg/kg i.p. days 6 and 10): significant increase in tumor growth inhibition
